How the values were obtained:
[1] = target: T1, interaction between the KRAS protein subtype G12V and the SOS1 protein (Homo sapiens, UniProt Q07889); test: Inhibition of the interaction between KRAS G12V and SOS1 protein (AlphaLISA/AlphaScreen); format: binding; conditions: KRAS G12V + GST-TEV-SOS1(564-1049) + GDP
T1 construct: GST-TEV-SOS1(564-1049) (Viva Biotech, SOS1-191010); purchased SOS1: Viva Biotech; KRAS: Shanghai Panchao Biotechnology Co., Ltd. SOS1-191010
T1 sequence (Q07889 564-1049): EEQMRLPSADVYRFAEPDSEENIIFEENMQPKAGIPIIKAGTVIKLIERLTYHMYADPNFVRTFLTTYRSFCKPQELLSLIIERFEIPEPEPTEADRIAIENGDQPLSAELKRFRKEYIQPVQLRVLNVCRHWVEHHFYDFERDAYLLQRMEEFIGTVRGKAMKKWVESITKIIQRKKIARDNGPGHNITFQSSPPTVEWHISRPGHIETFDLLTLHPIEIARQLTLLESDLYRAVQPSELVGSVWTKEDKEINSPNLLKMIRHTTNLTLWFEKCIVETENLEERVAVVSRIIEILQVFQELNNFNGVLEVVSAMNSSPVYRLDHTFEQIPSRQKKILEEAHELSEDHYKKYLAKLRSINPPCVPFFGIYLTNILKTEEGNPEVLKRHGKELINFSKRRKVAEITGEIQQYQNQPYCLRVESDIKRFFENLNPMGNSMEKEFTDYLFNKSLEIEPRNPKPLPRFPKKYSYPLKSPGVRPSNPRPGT
Protocol: (§1) Test Example 1: Inhibitory Ability of Compounds of the Present Disclosure to the Interaction Between the KRAS Protein Subtype G12D or G12V and the SOS1 Protein. The inhibitory ability of the compounds of the present disclosure to the interaction between the KRAS protein subtype G12D or G12V and the SOS1 protein was determined by the following method. The experimental method was briefly described as follows:
(§2) 1. The experimental buffer was prepared prior to the start of the experiment: 1×PBS+0.1% BSA+0.05% tween 20.
(§3) 2. KRAS G12D and KRAS-G12V proteins were labeled with biotin using the biotin labeling kit.
(§4) 1. Firstly, the biotin-labeled KRAS G12D or KRAS G12V protein was mixed and incubated with the SOS1 protein and GDP for later use.
(§5) 2. AlphaLISA glutathione acceptor beads and AlphaScreen streptavidin donor beads were mixed at a ratio of 1:1 to make the concentration of 40 μg/mL for later use.
(§6) 3. The compound was formulated with the experimental buffer to obtain 10 concentration points by 5-fold gradient dilution from an initial concentration of 40 μM.
(§7) 4. In the 384-well microplate, 10 μL of a mixture of KRAS G12D or KRAS G12V protein and SOS1 and GDP and 5 μL of the diluted compound were added to each well and incubated at room temperature for 30 min away from the light.
(§8) 5. Then, 5 μL of a mixture of AlphaLISA glutathione acceptor beads and AlphaScreen streptavidin donor beads was added to each well and incubated at room temperature for 60 min away from the light.
(§9) 6. The fluorescence values were read on a multi-mode microplate reader.
(§10) 7. IC50 values of the compounds were calculated using Graphpad Prism.

[2] = target: T2, interaction between the KRAS protein subtype G12D and the SOS1 protein (Homo sapiens, UniProt Q07889); test: Inhibition of the interaction between KRAS G12D and SOS1 protein (AlphaLISA/AlphaScreen); format: binding; conditions: KRAS G12D + GST-TEV-SOS1(564-1049) + GDP
T2 construct: GST-TEV-SOS1(564-1049) (Viva Biotech, SOS1-191010); purchased SOS1: Viva Biotech; KRAS: Shanghai Panchao Biotechnology Co., Ltd. SOS1-191010
T2 sequence (Q07889 564-1049): T1 sequence (Q07889 564-1049)
Protocol: as §1, §2, §3, §4, §5, §6, §7, §8, §9, §10

H358 cells = test: Inhibition of proliferation of H358 cells (CellTiter-Glo 3D); format: cell-based; conditions: Homo sapiens, NCI-H358, low adsorption plate, 120 h
Protocol: This example is intended to evaluate the inhibition effect of the compounds of the present disclosure on the KRAS target (containing the G12C mutation) by testing the inhibition effect of the compounds of the present disclosure on the proliferation of H358 cells.
H358 cells (ATCC, CRL-5807) were cultured in a complete medium, namely RPMI1640 medium (Hyclone, SH30809.01) containing 10% fetal bovine serum (Corning, 35-076-CV). On the first day of the experiment, the H358 cells were seeded into a 96-well low adsorption plate (Coming, CLS7007-24EA) at a density of 1500 cells/well with a complete medium to form 90 μL of cell suspension per well. The plate was centrifuged at 2000 rpm for 5 min at room temperature and then incubated overnight in a cell incubator at 37° C. with 5% CO2. The next day, 10 μL of test compound diluted in a gradient prepared with the complete medium was added to each well. The final concentrations of the compound were 9 concentration points obtained by 5-fold gradient dilution from 10 μM. A blank control containing 0.1% DMSO was set. The plate was incubated in a cell incubator at 37° C. with 5% CO2 for 120 h. On the seventh day, the 96-well cell culture plate was taken out and 50 μL of CellTiter-Glo® 3D reagent (Promega, G9682) was added into each well. The plate was shaken at room temperature for 25 min, pipetted and mixed well, from which 50 μL of the mixture was transferred into a white impermeable 96-well plate (PE, 6005290). The luminescence signal values were read using a multi-mode microplate reader (PerkinElmer, VICTOR 3).
IC50 values for the inhibitory activity of the compounds were calculated using Graphpad Prism software.

[3] = system: ERK phosphorylation of H358 cells; test: Inhibition of ERK phosphorylation of H358 cells (HTRF pERK/total ERK); format: cell-based; conditions: Homo sapiens, NCI-H358, 1 h incubation, pERK/total ERK ratio
Protocol: This experiment is intended to evaluate the inhibition effect of the compounds of the present disclosure on the KRAS target (containing the G12C mutation) according to IC50 by determining the inhibition effect of the compounds on ERK phosphorylation of the cells.
H358 cells (ATCC, CRL-5807) were cultured in RPMI1640 (Hyclone, SH30809.01) complete medium containing 10% fetal bovine serum. On the first day of the experiment, the H358 cells were seeded into a 96-well plate at a density of 25,000 cells/well with a complete medium to form 190 μL of cell suspension per well. The plate was incubated overnight in a cell incubator at 37° C. with 5% CO2. The next day, 10 μL of test compound diluted in a gradient prepared with the complete medium was added to each well. The final concentrations of the compound were 9 concentration points obtained by 5-fold gradient dilution from 10 μM. A blank control containing 0.1% DMSO was set. The plate was incubated in a cell incubator at 37° C. with 5% CO2 for 1 h. 1 h later, the 96-well cell culture plate was taken out, the medium was removed by pipetting, 200 μL PBS (Shanghai BasalMedia Technologies Co., Ltd., B320) was added to each well, and the cells were washed once. PBS was removed by pipetting, 50 μL of lysis buffer (Cisbio, 64KL1FDF) containing a blocking reagent (Cisbio, 64KB1AAC) was added to each well, and the plate was shaken on a shaker at room temperature for 40 min for lysis. After lysis, the lysate was pipetted and mixed well, 16 μL of lysate was transferred from each well to each of two HTRF 96-well assay plates (Cisbio, 66PL96100), and then 4 μL of premixed phospho-ERK1/2 antibody solution (Cisbio, 64AERPEG) or 4 μL of premixed total-ERK1/2 antibody solution (Cisbio, 64NRKPEG) was added to each of the two plates. The microplate was sealed with a sealing membrane, centrifuged for 1 min in a microplate centrifuge, and incubated overnight at room temperature away from the light. On the third day, the fluorescence values at an excitation wavelength of 337 nm and at emission wavelengths of 665 nm and 620 nm were read using a PHERAstar multi-mode microplate reader (BMG Labtech, S/N 471-0361).
IC50 values for inhibitory activity of the compounds were calculated using Graphpad Prism software based on compound concentrations and pERK/total ERK ratio.

SMILES | IC50 [1] | IC50 [2] | IC50 (H358 cells) | IC50 [3]
Cc1nc(N[C@H](C)c2cccc(C(F)F)c2F)c2cc(C3(O)CCN(C(=O)CF)CC3)c(=O)[nH]c2n1 (racemic) [Example 22, rac-(R)-4-((1-(3-(difluoromethyl)-2-fluorophenyl)ethyl)amino)-6-(1-(2-fluoroacetyl)-4-hydroxypiperidin-4-yl)-2-methylpyrido[2,3-d]pyrimidin-7(8H)-one] | 27 nM | 14 nM |  | 
Cc1nc(N[C@H](C)c2cccc(C(F)F)c2F)c2cc([C@]3(O)CC[C@H](O)CC3)c(=O)n(C)c2n1 [Example 28-p2, 4-(((R)-1-(3-(difluoromethyl)-2-fluorophenyl)ethyl)amino)-6-((1r,4R)-1,4-dihydroxycyclohexyl)-2,8-dimethylpyrido[2,3-d]pyrimidin-7(8H)-one] | 187 nM | 175 nM | 716 nM | 937 nM
Cc1nc(N[C@H](C)c2cccc(C(F)(F)CO)c2F)c2cc(OC3CCOC3)c(=O)[nH]c2n1 (stereo partly drawn) [Example 9, 4-(((R)-1-(3-(1,1-difluoro-2-hydroxyethyl)-2-fluorophenyl)ethyl)amino)-2-methyl-6-(((R)-tetrahydrofuran-3-yl)oxy)pyrido[2,3-d]pyrimidin-7(8B)-one] | 41 nM | 8 nM | 106 nM | 
CC(=O)N1CC(Oc2cc3c(N[C@H](C)c4cccc(C(F)F)c4F)nc(C)nc3[nH]c2=O)C1 (racemic) [Example 26, rac-(R)-6-((1-acetylazetidin-3-yl)oxy)-4-((1-(3-(difluoromethyl)-2-fluorophenyl)ethyl)amino)-2-methylpyrido[2,3-d]pyrimidin-7(8H)-one] | 65 nM | 44 nM | 346 nM | 
CNC(=O)C1CCC(O)(c2cc3c(N[C@H](C)c4cccc(C(F)F)c4F)nc(C)nc3[nH]c2=O)CC1 (stereo partly drawn) [Example 29, (R)-4-(4-((1-(3-(difluoromethyl)-2-fluorophenyl)ethyl)amino)-2-methyl-7-oxo-7,8-dihydropyrido[2,3-d]pyrimidin-6-yl)-4-hydroxy-N-methylcyclohexane-1-carboxamide] | 101 nM | 91 nM | 545 nM | 
Cc1nc(N[C@H](C)c2cccc(C(F)F)c2F)c2cc(C3CCOCC3)c(=O)[nH]c2n1 [Example 6, (R)-4-((1-(3-(difluoromethyl)-2-fluorophenyl)ethyl)amino)-2-methyl-6-(tetrahydro-2H-pyran-4-yl)pyrido[2,3-d]pyrimidin-7(8H)-one] | 56 nM | 30 nM | 345 nM | 
Cc1nc(N[C@H](C)c2cccc(C(F)F)c2F)c2cc(OC3CCS(=O)(=O)CC3)c(=O)[nH]c2n1 [Example 23, (R)-4-((1-(3-(difluoromethyl)-2-fluorophenyl)ethyl)amino)-6-((1,1-dioxidotetrahydro-2H-thiopyran-4-yl)oxy)-2-methylpyrido[2,3-d]pyrimidin-7(8H)-one] | 89 nM | 10 nM |  | 
Cc1nc(N[C@H](C)c2cccc(C(F)F)c2F)c2cc(C3=CCOCC3)c(=O)[nH]c2n1 [Example 5, (R)-4-((1-(3-(difluoromethyl)-2-fluorophenyl)ethyl)amino)-6-(3,6-dihydro-2H-pyran-4-yl)-2-methylpyrido[2,3-d]pyrimidin-7(8H)-one] | 79 nM | 42 nM | 461 nM | 
Cc1nc(N[C@H](C)c2cccc(C(F)F)c2F)c2cc(C3=CCC(C(=O)N(C)C)CC3)c(=O)[nH]c2n1 (stereo partly drawn) [Example 13, 4-(4-(((R)-1-(3-(difluoromethyl)-2-fluorophenyl)ethyl)amino)-2-methyl-7-oxo-7,8-dihydropyrido[2,3-d]pyrimidin-6-yl)-N,N-dimethylcyclohex-3-ene-1-carboxamide] | 79 nM | 21.5 nM | 137 nM | 
Cc1nc(N[C@H](C)c2cccc(C(F)F)c2F)c2cc(C3(O)CCOCC3)c(=O)[nH]c2n1 [Example 19, (R)-4-((1-(3-(difluoromethyl)-2-fluorophenyl)ethyl)amino)-6-(4-hydroxytetrahydro-2H-pyran-4-yl)-2-methylpyrido[2,3-d]pyrimidin-7(8H)-one] | 154 nM | 47 nM |  | 
CC(=O)N1CC[C@H](Oc2cc3c(N[C@H](C)c4cccc(C(F)F)c4F)nc(C)nc3[nH]c2=O)C1 [Example 24, 6-(((S)-1-acetylpyrrolidin-3-yl)oxy)-4-(((R)-1-(3-(difluoromethyl)-2-fluorophenyl)ethyl)amino)-2-methylpyrido[2,3-d]pyrimidin-7(8H)-one] | 133 nM | 49 nM |  | 
Cc1nc(N[C@H](C)c2cccc(C(F)F)c2F)c2cc(O[C@H]3CCOC3)c(=O)[nH]c2n1 [Example 10, 4-(((R)-1-(3-(difluoromethyl)-2-fluorophenyl)ethyl)amino)-2-methyl-6-(((S)-tetrahydrofuran-3-yl)oxy)pyrido[2,3-d]pyrimidin-7(8H)-one] | 80 nM | 34 nM |  | 
Cc1nc(N[C@H](C)c2cc(N)cc(C(F)(F)F)c2)c2cc(C3=CCOCC3)c(=O)[nH]c2n1 [Example 3, (R)-4-((1-(3-amino-5-(trifluoromethyl)phenyl)ethyl)amino)-6-(3,6-dihydro-2H-pyran-4-yl)-2-methylpyrido[2,3-d]pyrimidin-7(8H)-one] |  |  |  | 55 nM

From patent publication US20230219951A1, “PYRIDINE-PYRIMIDINE DERIVATIVE, PREPARATION METHOD THEREFOR AND PHARMACEUTICAL USE THEREOF” (Jiangsu Hengrui Pharmaceuticals Co., Ltd., priority 2020, published 2023)
